Source: ChEMBL document CHEMBL5715937, “In vitro activity of Bcr-Abl inhibitors AMN107 and BMS-354825 against clinically relevant imatinib-resistant Abl kinase domain mutants” (Cancer Res, 2005)
Calls of active or inactive are those of the source. No cut-off for these calls is given here.

Assays:
[1] = Inhibition of BCR-ABL M351T mutant (unknown origin) expressed in mouse BaF3 cells assessed as inhibition of cell growth incubated for 72 hrs by […] CellTiter96 viability analysis
[2] = test system: BaF3; assay: Induction of apoptosis in mouse BaF3 cells expressing Bcr-Abl F311L mutant assessed as increase in apoptotic cells at 1500 nM incubated for 72 hrs by Annexin V-phycoerythrin and 7-amino-actinomycin D staining based PCA instrument analysis relative to control; assay type: functional
[3] = Inhibition of BCR-ABL Q252H mutant (unknown origin) expressed in mouse BaF3 cells assessed as inhibition of cell growth incubated for 72 hrs by […] CellTiter96 viability analysis
[4] = test system: BaF3; assay: Induction of apoptosis in mouse BaF3 cells expressing Bcr-Abl Q252H mutant at 30 to 300 nM incubated for 72 hrs by Annexin V-phycoerythrin and 7-amino-actinomycin D staining based PCA instrument analysis; assay type: functional, cell-based; conditions: dose 30-300 nM
[5] = Inhibition of BCR-ABL Y253H mutant (unknown origin) expressed in mouse BaF3 cells assessed as inhibition of cell growth incubated for 72 hrs by […] CellTiter96 viability analysis
[6] = test system: BaF3; assay: Induction of apoptosis in mouse BaF3 cells expressing Bcr-Abl Y253H mutant assessed as increase in apoptotic cells at 1500 nM incubated for 72 hrs by Annexin V-phycoerythrin and 7-amino-actinomycin D staining based PCA instrument analysis relative to control; assay type: functional
[7] = Inhibition of BCR-ABL L387M mutant (unknown origin) expressed in mouse BaF3 cells assessed as inhibition of cell growth incubated for 72 hrs by […] CellTiter96 viability analysis; conditions: BaF3, time 72 hrs, condition chronic myelogenous leukemia
[8] = test system: BaF3; assay: Induction of apoptosis in mouse BaF3 cells expressing Bcr-Abl Y253H mutant at 30 to 300 nM incubated for 72 hrs by Annexin V-phycoerythrin and 7-amino-actinomycin D staining based PCA instrument analysis; assay type: functional, cell-based; conditions: dose 30-300 nM
[9] = cells; conditions: Mus musculus, BaF3, 3 h
[10] = test system: BaF3; assay: Induction of apoptosis in mouse BaF3 cells expressing Bcr-Abl E255K mutant assessed as increase in apoptotic cells at 1500 nM incubated for 72 hrs by Annexin V-phycoerythrin and 7-amino-actinomycin D staining based PCA instrument analysis relative to control; assay type: functional
[11] = test system: BaF3; assay: Induction of apoptosis in mouse BaF3 cells expressing Bcr-Abl M351T mutant assessed as increase in apoptotic cells at 1500 nM incubated for 72 hrs by Annexin V-phycoerythrin and 7-amino-actinomycin D staining based PCA instrument analysis relative to control; assay type: functional
[12] = test system: BaF3; assay: Induction of apoptosis in mouse BaF3 cells expressing Bcr-Abl M351T mutant at 30 to 300 nM incubated for 72 hrs by Annexin V-phycoerythrin and 7-amino-actinomycin D staining based PCA instrument analysis; assay type: functional, cell-based; conditions: dose 30-300 nM
[13] = test system: BaF3; assay: Induction of apoptosis in mouse BaF3 cells expressing Bcr-Abl Q252H mutant assessed as increase in apoptotic cells at 1500 nM incubated for 72 hrs by Annexin V-phycoerythrin and 7-amino-actinomycin D staining based PCA instrument analysis relative to control; assay type: functional
[14] = test system: BaF3; assay: Induction of apoptosis in mouse BaF3 cells expressing Bcr-Abl E255V mutant assessed as increase in apoptotic cells at 1500 nM incubated for 72 hrs by Annexin V-phycoerythrin and 7-amino-actinomycin D staining based PCA instrument analysis relative to control; assay type: functional
[15] = Inhibition of BCR-ABL phosphorylation in mouse BaF3 cells incubated for 3 hrs by immunoblotting analysis; assay type: functional, cell-based
[16] = cells; conditions: Mus musculus, BaF3, 3 h; remark: listed apart in the source
[17] = cells; conditions: Mus musculus, BaF3, 3 h; remark: listed apart in the source
[18] = Inhibition of BCR-ABL E255V mutant (unknown origin) expressed in mouse BaF3 cells assessed as inhibition of cell growth incubated for 72 hrs by […] CellTiter96 viability analysis
[19] = Inhibition of BCR-ABL L387M mutant (unknown origin) expressed in mouse BaF3 cells assessed as inhibition of tyrosine phosphorylation incubated for 3 hrs by immunoblotting analysis; assay type: cell-based; conditions: BaF3, 3 h
[20] = cells; conditions: Mus musculus, BaF3, 3 h; remark: listed apart in the source
[21] = Inhibition of BCR-ABL Y253F mutant (unknown origin) expressed in mouse BaF3 cells assessed as inhibition of cell growth incubated for 72 hrs by […] CellTiter96 viability analysis
[22] = test system: BaF3; assay: Induction of apoptosis in mouse BaF3 cells expressing Bcr-Abl V379l mutant at 30 to 300 nM incubated for 72 hrs by Annexin V-phycoerythrin and 7-amino-actinomycin D staining based PCA instrument analysis; assay type: functional, cell-based; conditions: dose 30-300 nM
[23] = test system: BaF3; assay: Induction of apoptosis in mouse BaF3 cells expressing Bcr-Abl E255K mutant at 30 to 300 nM incubated for 72 hrs by Annexin V-phycoerythrin and 7-amino-actinomycin D staining based PCA instrument analysis; assay type: functional, cell-based; conditions: dose 30-300 nM
[24] = test system: BaF3; assay: Induction of apoptosis in mouse BaF3 cells expressing Bcr-Abl L387M mutant assessed as increase in apoptotic cells at 1500 nM incubated for 72 hrs by Annexin V-phycoerythrin and 7-amino-actinomycin D staining based PCA instrument analysis relative to control; assay type: functional
[25] = cells; conditions: Mus musculus, BaF3, 3 h; remark: listed apart in the source
[26] = Inhibition of BCR-ABL F311L mutant (unknown origin) expressed in mouse BaF3 cells assessed as inhibition of cell growth incubated for 72 hrs by […] CellTiter96 viability analysis
[27] = test system: BaF3; assay: Induction of apoptosis in mouse BaF3 cells expressing Bcr-Abl H396R mutant assessed as increase in apoptotic cells at 1500 nM incubated for 72 hrs by Annexin V-phycoerythrin and 7-amino-actinomycin D staining based PCA instrument analysis relative to control; assay type: functional
[28] = cells; conditions: Mus musculus, BaF3, 3 h; remark: listed apart in the source
[29] = Cytotoxicity against mouse BaF3 cells assessed as reduction in cell proliferation incubated for 72 hrs by […] CellTiter96 viability analysis; assay type: toxicity
[30] = Inhibition of BCR-ABL F311L mutant (unknown origin) expressed in mouse BaF3 cells assessed as inhibition of tyrosine phosphorylation incubated for 3 hrs by immunoblotting analysis; assay type: cell-based; conditions: BaF3, 3 h
[31] = Inhibition of BCR-ABL G250E mutant (unknown origin) expressed in mouse BaF3 cells assessed as inhibition of cell growth incubated for 72 hrs by […] CellTiter96 viability analysis
[32] = test system: BaF3; assay: Induction of apoptosis in mouse BaF3 cells expressing wild-type Bcr-Abl assessed as increase in apoptotic cells at 1500 nM incubated for 72 hrs by Annexin V-phycoerythrin and 7-amino-actinomycin D staining based PCA instrument analysis relative to control; assay type: functional
[33] = BaF3, time 72 hrs, condition chronic myelogenous leukemia

IC50 [9]: 7 nM
IC50 [15]: Not Active
IC50 [16]: 8 nM
IC50 [17]: 70 nM
IC50 [19]: 33 nM
IC50 [20]: > 5000 nM
IC50 [25]: 250 nM
IC50 [28]: 8 nM
IC50 [30]: 44 nM
SMILES: Cc1cn(-c2cc(NC(=O)c3ccc(C)c(Nc4nccc(-c5cccnc5)n4)c3)cc(C(F)(F)F)c2)cn1 [NILOTINIB]
IC50 ([1]; BaF3, 72 h): 15 nM
IC90 [1, 33]: 31 nM
Activity [2]: >90%
IC50 ([3]; BaF3, 72 h): 70 nM
IC90 [3, 33]: 156 nM
Activity [4]: Active
IC50 ([5]; BaF3, 72 h): 450 nM
IC90 [5, 33]: 1020 nM
Activity [6]: 65%
IC90 [7]: 115 nM
Activity [8]: Active
Activity [10]: >90%
Activity [11]: >90%
Activity [12]: Active
Activity [13]: >90%
Activity [14]: 65%
IC50 ([18]; BaF3, 72 h): 430 nM
IC90 [18, 33]: 2000 nM
IC50 ([21]; BaF3, 72 h): 125 nM
IC90 [21, 33]: 215 nM
Activity [22]: Active
Activity [23]: Active
Activity [24]: >90%
IC50 ([26]; BaF3, 72 h): 23 nM
IC90 [26, 33]: 48 nM
Activity [27]: >90%
IC50 at 72 h [29]: > 2000 nM
IC50 ([31]; BaF3, 72 h): 48 nM
IC90 [31, 33]: 152 nM
Activity [32]: >90%
